Legend:
ISC-enriched organoids [1] = experiment: Primary screen, 384-well 2.5-D organoid differentiation (ENR+CD, 6 days): basal lysozyme secretion (LYZ.NS); format: cell-based, murine; settings: for Dose.FC.LYZ.NS: FC vs plate median; for Z.LYZ.NS: standard z score of FC
Text: (§1) High-throughput screening.

ISC-enriched organoids [2] = experiment: Primary screen, 384-well 2.5-D organoid differentiation (ENR+CD, 6 days): carbachol-induced lysozyme secretion (LYZ.S); format: cell-based, murine; settings: FC vs plate median
Text: as §1

ISC-enriched organoids [3] = experiment: Primary screen, 384-well 2.5-D organoid differentiation (ENR+CD, 6 days, Target Selective Inhibitor Library, vs whole-plate median): ATP (CellTiter-Glo 3D, CTG); settings: for Dose.FC.CTG: FC vs plate median; for Z.CTG: standard z score of FC
[4] = primary screen, dose 0.08 uM, ENR+CD 6 days
[5] = primary screen, dose 0.40 uM, ENR+CD 6 days
[6] = primary screen, dose 2.00 uM, ENR+CD 6 days
[7] = primary screen, dose 10.00 uM, ENR+CD 6 days

SMILES | Dose.FC.LYZ.NS (ISC-enriched organoids [1]; Dose 0.08 uM, primary screen) [log 2 fold change] | Z.LYZ.NS (ISC-enriched organoids [1]; Dose 0.08 uM) | Dose.FC.LYZ.NS (ISC-enriched organoids [1]; Dose 0.40 uM, primary screen) [log 2 fold change] | Z.LYZ.NS (ISC-enriched organoids [1]; Dose 0.40 uM) | Dose.FC.LYZ.NS (ISC-enriched organoids [1]; Dose 2.00 uM, primary screen) [log 2 fold change] | Z.LYZ.NS (ISC-enriched organoids [1]; Dose 2.00 uM) | Dose.FC.LYZ.NS (ISC-enriched organoids [1]; Dose 10.00 uM, primary screen) [log 2 fold change] | Z.LYZ.NS (ISC-enriched organoids [1]; Dose 10.00 uM) | Dose.FC.LYZ.S (ISC-enriched organoids [2]; Dose 0.08 uM, primary screen) [log 2 fold change] | Dose.FC.LYZ.S (ISC-enriched organoids [2]; Dose 0.40 uM, primary screen) [log 2 fold change] | Dose.FC.LYZ.S (ISC-enriched organoids [2]; Dose 2.00 uM, primary screen) [log 2 fold change] | Dose.FC.LYZ.S (ISC-enriched organoids [2]; Dose 10.00 uM, primary screen) [log 2 fold change] | Dose.FC.CTG (ISC-enriched organoids [3]; Dose 0.08 uM, primary screen) [log 2 fold change] | Z.CTG (ISC-enriched organoids [3]; Dose 0.08 uM) | Dose.FC.CTG (ISC-enriched organoids [3]; Dose 0.40 uM, primary screen) [log 2 fold change] | Z.CTG (ISC-enriched organoids [3]; Dose 0.40 uM) | Dose.FC.CTG (ISC-enriched organoids [3]; Dose 2.00 uM, primary screen) [log 2 fold change] | Z.CTG (ISC-enriched organoids [3]; Dose 2.00 uM) | Dose.FC.CTG (ISC-enriched organoids [3]; Dose 10.00 uM, primary screen) [log 2 fold change] | Z.CTG (ISC-enriched organoids [3]; Dose 10.00 uM) | also measured
COc1cc(OC)c(NC(=O)Nc2cc(C)on2)cc1Cl [PNU-120596] | 0.108 | 0.944 | −0.011 | −0.098 | 0.068 | 0.594 | −0.060 | −0.525 | 0.058 | 0.081 | 0.065 | −0.049 | −0.079 | −0.188 | 0.085 | 0.204 | 0.114 | 0.271 | 0.138 | 0.330 | –
CCOC(=O)c1ccc(NC2CCCCC2)c(N)c1 [Ferrostatin-1 (Fer-1)] | – | 0.944 | – | 1.012 | – | 0.610 | – | 0.116 | – | – | – | – | – | 0.745 | – | 1.082 | – | 0.514 | – | −0.109 | Dose.FC.LYZ.NS (ISC-enriched organoids [1]; Dose 0.08 uM, ENR+CD, 6 days): 0.108 log 2 fold change; Dose.FC.LYZ.NS (ISC-enriched organoids [1]; Dose 0.40 uM, ENR+CD, 6 days): 0.116 log 2 fold change; Dose.FC.LYZ.NS (ISC-enriched organoids [1]; Dose 2.00 uM, ENR+CD, 6 days): 0.070 log 2 fold change; Dose.FC.LYZ.NS (ISC-enriched organoids [1]; Dose 10.00 uM, ENR+CD, 6 days): 0.013 log 2 fold change; Dose.FC.LYZ.S (ISC-enriched organoids [2]; Dose 0.08 uM, ENR+CD, 6 days): 0.120 log 2 fold change; Dose.FC.LYZ.S (ISC-enriched organoids [2]; Dose 0.40 uM, ENR+CD, 6 days): 0.207 log 2 fold change; Dose.FC.LYZ.S (ISC-enriched organoids [2]; Dose 2.00 uM, ENR+CD, 6 days): 0.092 log 2 fold change; Dose.FC.LYZ.S (ISC-enriched organoids [2]; Dose 10.00 uM, ENR+CD, 6 days): −0.018 log 2 fold change; Dose.FC.CTG (ISC-enriched organoids [3]; Dose 0.08 uM, ENR+CD, 6 days): 0.312 log 2 fold change; Dose.FC.CTG (ISC-enriched organoids [3]; Dose 0.40 uM, ENR+CD, 6 days): 0.453 log 2 fold change; Dose.FC.CTG (ISC-enriched organoids [3]; Dose 2.00 uM, ENR+CD, 6 days): 0.215 log 2 fold change; Dose.FC.CTG (ISC-enriched organoids [3]; Dose 10.00 uM, ENR+CD, 6 days): −0.046 log 2 fold change
O=C(O)c1cccc(-c2noc(-c3ccccc3F)n2)c1 [Ataluren (PTC124)] | – | – | – | – | – | – | – | – | – | – | – | – | – | – | – | – | – | – | – | – | Dose.FC.LYZ.NS (ISC-enriched organoids [1]; [4]): 0.029 log 2 fold change; Z.LYZ.NS (ISC-enriched organoids [1]; primary screen, dose 0.08 uM): 0.253; Dose.FC.LYZ.NS (ISC-enriched organoids [1]; [5]): 0.042 log 2 fold change; Z.LYZ.NS (ISC-enriched organoids [1]; primary screen, dose 0.40 uM): 0.362; Dose.FC.LYZ.NS (ISC-enriched organoids [1]; [6]): 0.131 log 2 fold change; Z.LYZ.NS (ISC-enriched organoids [1]; primary screen, dose 2.00 uM): 1.140; Dose.FC.LYZ.NS (ISC-enriched organoids [1]; [7]): 0.009 log 2 fold change; Z.LYZ.NS (ISC-enriched organoids [1]; primary screen, dose 10.00 uM): 0.077; Dose.FC.LYZ.S (ISC-enriched organoids [2]; [4]): 0.051 log 2 fold change; Dose.FC.LYZ.S (ISC-enriched organoids [2]; [5]): 0.034 log 2 fold change; Dose.FC.LYZ.S (ISC-enriched organoids [2]; [6]): 0.058 log 2 fold change; Dose.FC.LYZ.S (ISC-enriched organoids [2]; [7]): 0.005 log 2 fold change; Dose.FC.CTG (ISC-enriched organoids [3]; [4]): 0.267 log 2 fold change; Z.CTG (ISC-enriched organoids [3]; primary screen, dose 0.08 uM): 0.639; Dose.FC.CTG (ISC-enriched organoids [3]; [5]): −0.340 log 2 fold change; Z.CTG (ISC-enriched organoids [3]; primary screen, dose 0.40 uM): −0.813; Dose.FC.CTG (ISC-enriched organoids [3]; [6]): −0.042 log 2 fold change; Z.CTG (ISC-enriched organoids [3]; primary screen, dose 2.00 uM): −0.100; Dose.FC.CTG (ISC-enriched organoids [3]; [7]): 0.006 log 2 fold change; Z.CTG (ISC-enriched organoids [3]; primary screen, dose 10.00 uM): 0.013
C=CCc1cccc(/C=N/NC(=O)CN2CCN(Cc3ccccc3)CC2)c1O [PAC-1] | 0.157 | 1.365 | 0.053 | 0.457 | 0.126 | 1.094 | 0.068 | 0.596 | 0.128 | 0.059 | −0.006 | 0.092 | 0.095 | 0.228 | 0.113 | 0.270 | −0.241 | −0.576 | 0.002 | 0.004 | –

Source: patent US20230398130A1, “METHODS AND COMPOSITIONS FOR DIFFERENTIATING STEM CELLS” (Massachusetts Institute of Technology, priority 2020, published 2023)
